PubChem BioAssay AID248 (DTP/NCI, 2004)
Values joined by “and” are separate entries in the source; they are usually repeats but may differ in a detail not shown here. Equal entries are not always repeated. Inconclusive results and toxic doses are left out. No stated cut-off is given here; in the data, active means T/C of 150% or more; inactive means T/C below 125%.

Test system: L1210 leukemia ip in BDF1 mice, survival T/C
Assay: NCI In Vivo Anticancer Drug Screen. Data for tumor model L1210 Leukemia (intraperitoneal) in B6D2F1 (BDF1) mice
Conditions: endpoint: mean survival time, higher = longer survival
Outline: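 Survival endpoint. Drug-treated group vs vehicle group, expressed as T divided by C. Tumor passaged by transplantation.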

[1] = dose: 100.0 mg/kg/injection, schedule: Q01DX009 (ip), vehicle: saline
[2] = dose: 100.0 mg/kg/injection, schedule: Q04DX003 (ip), vehicle: saline
[3] = dose: 200.0 mg/kg/injection, schedule: Q01DX009 (ip), vehicle: saline
[4] = dose: 200.0 mg/kg/injection, schedule: Q04DX003 (ip), vehicle: saline
[5] = dose: 400.0 mg/kg/injection, schedule: Q01DX009 (ip), vehicle: saline
[6] = dose: 400.0 mg/kg/injection, schedule: Q04DX003 (ip), vehicle: saline
[7] = dose: 100.0 mg/kg/injection, schedule: Q01DX009 (ip), vehicle: Klucel (hydroxypropylcellulose) (HPC)
[8] = dose: 200.0 mg/kg/injection, schedule: Q01DX009 (ip), vehicle: Klucel (hydroxypropylcellulose) (HPC)
[9] = dose: 400.0 mg/kg/injection, schedule: Q01DX009 (ip), vehicle: Klucel (hydroxypropylcellulose) (HPC)

Measured: T/C

CCN1C=C/C(=C\C=C/c2cc[n+](CC)c3ccccc23)c2ccccc21
inactive: dose: 0.05 mg/kg/injection, schedule: Q01DX Z (ip), vehicle: methylcellulose (MC) 96 % of control | dose: 0.06 mg/kg/injection, schedule: Q01DX Z (ip), vehicle: methylcellulose (MC) 106 % of control and 121 % of control | dose: 0.08 mg/kg/injection, schedule: Q01DX Z (ip), vehicle: methylcellulose (MC) 104 % of control | dose: 0.1 mg/kg/injection, schedule: Q01DX Z (ip), vehicle: methylcellulose (MC) 107 % of control | dose: 0.11 mg/kg/injection, schedule: Q01DX Z (ip), vehicle: methylcellulose (MC) 121 % of control | dose: 0.15 mg/kg/injection, schedule: Q01DX Z (ip), vehicle: methylcellulose (MC) 119 % of control | dose: 0.3 mg/kg/injection, schedule: Q01DX Z (ip), vehicle: methylcellulose (MC) 113 % of control and 120 % of control and 121 % of control | dose: 0.33 mg/kg/injection, schedule: Q01DX009 (ip), vehicle: saline with Tween-80 118 % of control | dose: 0.33 mg/kg/injection, schedule: Q03HX024 (ip), vehicle: saline with Tween-80 109 % of control | dose: 0.4 mg/kg/injection, schedule: Q01DX Z (ip), vehicle: methylcellulose (MC) 112 % of control | dose: 0.44 mg/kg/injection, schedule: Q01DX009 (ip), vehicle: saline with Tween-80 121 % of control | dose: 0.48 mg/kg/injection, schedule: Q01DX009 (ip), vehicle: saline with Tween-80 112 % of control | dose: 0.5 mg/kg/injection, schedule: Q01DX009 (ip), vehicle: saline 101 % of control | dose: 0.5 mg/kg/injection, schedule: Q04DX003 (ip), vehicle: saline sonified 107 % of control | dose: 0.67 mg/kg/injection, schedule: Q01DX001 (ip), vehicle: saline with Tween-80 105 % of control | dose: 0.67 mg/kg/injection, schedule: Q04DX003 (ip), vehicle: saline with Tween-80 105 % of control | dose: 0.7 mg/kg/injection, schedule: Q01DX Z (ip), vehicle: methylcellulose (MC) 96 % of control | dose: 0.74 mg/kg/injection, schedule: Q01DX009 (ip), vehicle: saline with Tween-80 114 % of control and 118 % of control | dose: 1.0 mg/kg/injection, schedule: Q01DX001 (ip), vehicle: saline with Tween-80 105 % of control | dose: 1.0 mg/kg/injection, schedule: Q01DX009 (ip), vehicle: saline 107 % of control | dose: 1.0 mg/kg/injection, schedule: Q01DX Z (ip), vehicle: methylcellulose (MC) 100 % of control | dose: 1.0 mg/kg/injection, schedule: Q04DX003 (ip), vehicle: saline sonified 110 % of control | dose: 1.1 mg/kg/injection, schedule: Q01DX009 (ip), vehicle: saline with Tween-80 105 % of control | dose: 1.5 mg/kg/injection, schedule: Q01DX001 (ip), vehicle: saline with Tween-80 112 % of control | dose: 1.5 mg/kg/injection, schedule: Q01DX Z (ip), vehicle: methylcellulose (MC) 108 % of control | dose: 1.5 mg/kg/injection, schedule: Q04DX003 (ip), vehicle: saline with Tween-80 113 % of control | dose: 2.0 mg/kg/injection, schedule: Q04DX003 (ip), vehicle: saline sonified 118 % of control | dose: 2.2 mg/kg/injection, schedule: Q01DX001 (ip), vehicle: saline with Tween-80 110 % of control | dose: 2.2 mg/kg/injection, schedule: Q04DX003 (ip), vehicle: saline with Tween-80 98 % of control | dose: 3.3 mg/kg/injection, schedule: Q01DX001 (ip), vehicle: saline with Tween-80 100 % of control and 88 % of control | dose: 7.4 mg/kg/injection, schedule: Q01DX001 (ip), vehicle: saline with Tween-80 105 % of control | dose: 67.0 micrograms/kg/injection, schedule: Q03HX024 (ip), vehicle: saline with Tween-80 102 % of control | dose: 100.0 micrograms/kg/injection, schedule: Q03HX024 (ip), vehicle: saline with Tween-80 101 % of control | dose: 150.0 micrograms/kg/injection, schedule: Q03HX024 (ip), vehicle: saline with Tween-80 104 % of control | dose: 220.0 micrograms/kg/injection, schedule: Q03HX024 (ip), vehicle: saline with Tween-80 97 % of control | dose: 330.0 micrograms/kg/injection, schedule: Q03HX024 (ip), vehicle: saline with Tween-80 102 % of control

C[N+](C)(C)CCCCCCCC[N+](C)(C)CCCCCCCCCC[N+](C)(C)CCCCCCCC[N+](C)(C)C
inactive: dose: 23.0 micrograms/kg/injection, schedule: Q04DX003 (ip), vehicle: saline 97 % of control | dose: 45.0 micrograms/kg/injection, schedule: Q04DX003 (ip), vehicle: saline 105 % of control | dose: 90.0 micrograms/kg/injection, schedule: Q04DX003 (ip), vehicle: saline 103 % of control

COC(OC)OC
inactive: [1] 104 % of control | [2] 100 % of control | [3] 101 % of control | [4] 105 % of control | [5] 100 % of control | [6] 105 % of control

CCOC(=O)c1ccc(NC(=O)Nc2ccccc2C(=O)OC)cc1
inactive: [7] 110 % of control | [8] 100 % of control | [9] 94 % of control

CCCCCCCCCCCCCC(=O)OCC(OC(=O)CCCCCCCCCCCCC)C(OC(=O)CCCCCCCCCCCCC)C(OC(=O)CCCCCCCCCCCCC)C(C=O)OC(=O)CCCCCCCCCCCCC (stereo unspecified)
inactive: dose: 100.0 mg/kg/injection, schedule: Q01DX001 (ip), vehicle: other 90 % of control | dose: 200.0 mg/kg/injection, schedule: Q01DX001 (ip), vehicle: other 97 % of control | dose: 400.0 mg/kg/injection, schedule: Q01DX001 (ip), vehicle: other 92 % of control

Cc1ccc(C)c(NC(=O)c2ccccc2C(=O)O)c1
inactive: [7] 102 % of control | dose: 100.0 mg/kg/injection, schedule: Q04DX003 (ip), vehicle: Klucel (hydroxypropylcellulose) (HPC) 101 % of control | [8] 104 % of control | dose: 200.0 mg/kg/injection, schedule: Q04DX003 (ip), vehicle: Klucel (hydroxypropylcellulose) (HPC) 102 % of control | [9] 93 % of control | dose: 400.0 mg/kg/injection, schedule: Q04DX003 (ip), vehicle: Klucel (hydroxypropylcellulose) (HPC) 98 % of control

CC(=O)OCc1cccc(C)n1
inactive: [1] 97 % of control | [2] 94 % of control and 102 % of control | [3] 96 % of control | [4] 100 % of control | [5] 100 % of control | [6] 93 % of control and 97 % of control

CC1(N)CCOC1=O (stereo unspecified)
inactive: [1] 93 % of control | [3] 93 % of control | [5] 93 % of control

CN(C)/C(=C\C(=O)c1ccccc1)c1ccccc1
inactive: dose: 100.0 mg/kg/injection, schedule: Q04DX003 (ip), vehicle: saline with Tween-80 90 % of control | dose: 400.0 mg/kg/injection, schedule: Q04DX003 (ip), vehicle: saline with Tween-80 86 % of control

Cc1cc(C)c2c(c1)CC2=O
inactive: dose: 50.0 mg/kg/injection, schedule: Q04DX002 (ip), vehicle: Klucel (hydroxypropylcellulose) (HPC) 96 % of control | dose: 100.0 mg/kg/injection, schedule: Q04DX002 (ip), vehicle: Klucel (hydroxypropylcellulose) (HPC) 112 % of control | dose: 200.0 mg/kg/injection, schedule: Q04DX002 (ip), vehicle: Klucel (hydroxypropylcellulose) (HPC) 86 % of control

CCCCCCCCCCCCCCCCCC1=NC(C)CC(C)(C)O1 (stereo unspecified)
inactive: dose: 50.0 mg/kg/injection, schedule: Q01DX009 (ip), vehicle: saline 93 % of control | dose: 100.0 mg/kg/injection, schedule: Q01DX001 (ip), vehicle: saline 89 % of control | [1] 94 % of control | [2] 86 % of control | dose: 200.0 mg/kg/injection, schedule: Q01DX001 (ip), vehicle: saline 95 % of control | [3] 96 % of control | [4] 94 % of control | dose: 400.0 mg/kg/injection, schedule: Q01DX001 (ip), vehicle: saline 91 % of control

O=C(O)c1ccc(CCc2cccnc2)cc1
inactive: dose: 100.0 mg/kg/injection, schedule: Q01DX001 (ip), vehicle: saline with Tween-80 96 % of control | dose: 200.0 mg/kg/injection, schedule: Q01DX001 (ip), vehicle: saline with Tween-80 98 % of control
